According to patent US7005425B2, “Method for treating arrhythmias” (CV Therapeutics, Inc., priority 2002, dated 2006):

Assay: Plasma concentrations of CVT-510 in rats (LC-MS-MS)
Assay type: in vivo, Rats (Sprague Dawley)
Settings: subcutaneous osmotic pump, 20 μg/kg/hr
Source text: A subgroup of animals was implanted with osmotic pumps containing CVT-510 for combination experiments. After 7 days or more of having been implanted with radio-telemetry transmitters for recording ECG (L-2), and verifying that the transmitters were functioning, each rat was implanted with an Alzet mini-osmotic pump. Under anesthesia (see above) and sterile conditions, one Alzet mini-osmotic pump, was implanted subcutaneously (SC) in the interscapular area of each rat. The osmotic pumps were filled with either vehicle or CVT-510 (to deliver a dose of 20 μg/kg/hr).
Carotid artery was catheterized to obtain serial blood samples for the analysis of CVT-510 plasma concentrations. Animals were anesthetized by peritoneal injection of a “cocktail” (1 ml/kg) containing Ketamine (75 mg/ml), Xylazine (5 mg/ml), and Acepromazine (1 mg/ml). After a 20–30 min. of induction of anesthesia, a midline incision was made in the neck region to expose the external carotid artery. […]
CVT-510 plasma level analysis was performed as follows. […] Concentration of CVT-510 in protein precipitation filtrates were analyzed by LC-MS-MS using a Waters Alliance 2690 HPLC system (Millford, Mass.) coupled to a Waters/Micromass Quattro Ultima triple quadrupole mass spectrometer (Millford, Mass.). […]

OC[C@H]1O[C@@H](n2cnc3c(N[C@@H]4CCOC4)ncnc32)[C@H](O)[C@@H]1O [CVT-510, 6-(3-(R)-aminotetrahydrofuranyl)purine riboside]
plasma concentration of CVT-510: 7.5 ± 1 ng/mL
